Experimental findings from patent US9315503B2, “Kinase inhibitors” (CHIESI FARMACEUTICI S.p.A., priority 2011, dated 2016) are described below.

pIC50: −log10 of the molar value. Structures can show the parent of a compound that is named as a salt.

In one experiment the target is T1, p38alpha (Homo sapiens, UniProt Q16539).
T1 construct: purchased Invitrogen PV3304
T1 sequence (Q16539 whole entry): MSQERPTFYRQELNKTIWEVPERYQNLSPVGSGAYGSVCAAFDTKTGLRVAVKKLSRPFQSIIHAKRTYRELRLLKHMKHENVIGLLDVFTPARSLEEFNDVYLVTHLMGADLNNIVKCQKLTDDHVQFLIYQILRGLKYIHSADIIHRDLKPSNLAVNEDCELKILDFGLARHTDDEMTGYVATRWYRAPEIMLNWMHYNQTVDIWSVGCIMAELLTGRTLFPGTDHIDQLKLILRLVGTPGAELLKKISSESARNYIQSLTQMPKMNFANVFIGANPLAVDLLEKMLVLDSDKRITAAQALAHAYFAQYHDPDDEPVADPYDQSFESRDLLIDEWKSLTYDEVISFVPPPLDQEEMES
The experiment is described as follows: P38Alpha enzyme inhibition assay (Alphascreen kinase activity assay). It counts as biochemical. To be noted: 100 pM p38alpha, 250 μM ATP, 2 hours pre-incubation at 25° C., read-out: p38α inhibition (IC50 values). The procedure: P38Alpha Enzyme Inhibition Assay.
The inhibitory activity of compounds was determined using an Alphascreen® (Perkin Elmer) based kinase activity assay. Kinase reactions consisted of 25 mM HEPES pH 7.5, 10 mM MgCl2, 100 μM Na3VO4, 2 mM DTT, 0.05 mg/ml Tween 20, 100 pM p38alpha (Invitrogen, PV3304), 1% DMSO and 0.3 μg/ml ATF-2 fusion protein (New England Biolabs, 9224). Compounds were incubated under these conditions for 2 hours, at 25° C., prior to the initiation of the kinase activity by the addition of the 250 μM ATP. Reaction volumes were 20 uL. After 1 hr at 25° C. reactions were stopped by the adding 10 uL of 25 mM HEPES pH 7.5 containing 62.5 mM EDTA, 0.05% Triton X-100, 10% BSA and 0.83 ng/uL anti-phospho-ATF2 antibody (Abeam, ab28812). Detection was performed by measuring luminescence following the addition of Alphascreen Donor beads (Perkin Elmer 6765300) and Protein A Alphascreen Acceptor beads (Perkin Elmer 6760137), both at a final concentration of 20 ug/ml. IC50 values were determined from concentration-response curves.
Consider `Cc1ccc(-n2nc(C(C)(C)C)cc2NC(=O)N[C@H]2CC[C@@H](Oc3ccc4nnc(CCN5CCCC5)n4c3)c3ccccc32)cc1` [Example 1, 1-(5-tert-Butyl-2-p-tolyl-2H-pyrazol-3-yl)-3-{(1S,4R)-4-[3-(2-pyrrolidin-1-yl-ethyl)-[1,2,4]triazolo[4,3-a]pyridin-6-yloxy]-1,2,3,4-tetrahydro-naphthalen-1-yl}-urea], for which the pIC50 was more than 8.00.

In the case of `COCCN(C)Cc1cccc(-n2nc(C(C)(C)C)cc2NC(=O)N[C@H]2CC[C@@H](Oc3ccc4nnc(N5CCCC[C@@H]5C)n4c3)c3ccccc32)c1` [Example 168, 1-[5-tert-Butyl-2-(3-{[(2-methoxy-ethyl)-methyl-amino]-methyl}-phenyl)-2H-pyrazol-3-yl]-3-{(1S,4R)-4-[3-((S)-2-methyl-piperidin-1-yl)-[1,2,4]triazolo[4,3-a]pyridin-6-yloxy]-1,2,3,4-tetrahydro-naphthalen-1-yl}-urea formate salt], the pIC50 is more than 8.00.

`C[C@H]1CCCCN1c1nnc2ccc(O[C@@H]3CC[C@H](NC(=O)Nc4cc(C(C)(C)C)nn4-c4cccc(CN5CCC(F)CC5)c4)c4ccccc43)cn12` [Example 169, 1-{5-tert-Butyl-2-[3-(4-fluoro-piperidin-1-ylmethyl)-phenyl]-2H-pyrazol-3-yl}-3-{(1S,4R)-4-[3-((S)-2-methyl-piperidin-1-yl)-[1,2,4]triazolo[4,3-a]pyridin-6-yloxy]-1,2,3,4-tetrahydro-naphthalen-1-yl}-urea formate salt]: the pIC50 was more than 8.00.

Consider `C[C@H]1CCCCN1c1nnc2ccc(O[C@@H]3CC[C@H](NC(=O)Nc4cc(C(C)(C)C)nn4-c4cccc(CN(C)C)c4)c4ccccc43)cn12` [Example 170, 1-[5-tert-Butyl-2-(3-dimethylaminomethyl-phenyl)-2H-pyrazol-3-yl]-3-{(1S,4R)-4-[3-((S)-2-methyl-piperidin-1-yl)-[1,2,4]triazolo[4,3-a]pyridin-6-yloxy]-1,2,3,4-tetrahydro-naphthalen-1-yl}-urea formate salt], for which the pIC50 was more than 8.00.

For `C[C@H]1CCCCN1c1nnc2ccc(O[C@@H]3CC[C@H](NC(=O)Nc4cc(C(C)(C)C)nn4-c4cccc(CN5CCCC5)c4)c4ccccc43)cn12` [Example 171, 1-[5-tert-Butyl-2-(3-pyrrolidin-1-ylmethyl-phenyl)-2H-pyrazol-3-yl]-3-{(1S,4R)-4-[3-((S)-2-methyl-piperidin-1-yl)-[1,2,4]triazolo[4,3-a]pyridin-6-yloxy]-1,2,3,4-tetrahydro-naphthalen-1-yl}-urea formate salt], the pIC50 was more than 8.00.

In the case of `C[C@H]1CCCCN1c1nnc2ccc(O[C@@H]3CC[C@H](NC(=O)Nc4cc(C(C)(C)C)nn4-c4ccc(CN5CCOCC5)cc4)c4ccccc43)cn12` [Example 176, 1-[5-tert-Butyl-2-(4-morpholin-4-ylmethyl-phenyl)-2H-pyrazol-3-yl]-3-{(1S,4R)-4-[3-((S)-2-methyl-piperidin-1-yl)-[1,2,4]triazolo[4,3-a]pyridin-6-yloxy]-1,2,3,4-tetrahydro-naphthalen-1-yl}-urea], the pIC50 is more than 8.00.

`C[C@H]1CCCCN1c1nnc2ccc(O[C@@H]3CC[C@H](NC(=O)Nc4cc(C(C)(C)C)nn4-c4ccc(CN5CCN(C)CC5)cc4)c4ccccc43)cn12` [Example 178, 1-{5-tert-Butyl-2-[4-(4-methyl-piperazin-1-ylmethyl)-phenyl]-2H-pyrazol-3-yl}-3-{(1S,4R)-4-[3-((S)-2-methyl-piperidin-1-yl)-[1,2,4]triazolo[4,3-a]pyridin-6-yloxy]-1,2,3,4-tetrahydro-naphthalen-1-yl}-urea partial formate salt]: the pIC50 is more than 8.00.

For `C[C@H]1CCCCN1c1nnc2ccc(O[C@@H]3CC[C@H](NC(=O)Nc4cc(C(C)(C)C)nn4-c4ccc(CN5CCCC5)cc4)c4ccccc43)cn12` [Example 181, 1-[5-tert-Butyl-2-(4-pyrrolidin-1-ylmethyl-phenyl)-2H-pyrazol-3-yl]-3-{(1S,4R)-4-[3-((S)-2-methyl-piperidin-1-yl)-[1,2,4]triazolo[4,3-a]pyridin-6-yloxy]-1,2,3,4-tetrahydro-naphthalen-1-yl}-urea formate salt], the pIC50 is more than 8.00.

As for `C[C@H]1CCCCN1c1nnc2ccc(O[C@@H]3CC[C@H](NC(=O)Nc4cc(C(C)(C)C)nn4-c4ccc(CN5CCCCC5)cc4)c4ccccc43)cn12` [Example 182, 1-[5-tert-Butyl-2-(4-piperidin-1-ylmethyl-phenyl)-2H-pyrazol-3-yl]-3-{(1S,4R)-4-[3-((S)-2-methyl-piperidin-1-yl)-[1,2,4]triazolo[4,3-a]pyridin-6-yloxy]-1,2,3,4-tetrahydro-naphthalen-1-yl}-urea formate salt], the pIC50 was more than 8.00.

Regarding `C[C@H]1CCCCN1c1nnc2ccc(O[C@@H]3CC[C@H](NC(=O)Nc4cc(C(C)(C)C)nn4-c4ccc(CN5CCC(F)CC5)cc4)c4ccccc43)cn12` [Example 183, 1-{5-tert-Butyl-2-[4-(4-fluoro-piperidin-1-ylmethyl)-phenyl]-2H-pyrazol-3-yl}-3-{(1S,4R)-4-[3-((S)-2-methyl-piperidin-1-yl)-[1,2,4]triazolo[4,3-a]pyridin-6-yloxy]-1,2,3,4-tetrahydro-naphthalen-1-yl}-urea formate salt], the pIC50 is more than 8.00.

For `CCN(C)Cc1ccc(-n2nc(C(C)(C)C)cc2NC(=O)N[C@H]2CC[C@@H](Oc3ccc4nnc(N5CCCC[C@@H]5C)n4c3)c3ccccc32)cc1` [Example 184, 1-(5-tert-Butyl-2-{4-[(ethyl-methyl-amino)-methyl]-phenyl}-2H-pyrazol-3-yl)-3-{(1S,4R)-4-[3-((S)-2-methyl-piperidin-1-yl)-[1,2,4]triazolo[4,3-a]pyridin-6-yloxy]-1,2,3,4-tetrahydro-naphthalen-1-yl}-urea formate salt], the pIC50 is more than 8.00.

`COCCN(C)Cc1ccc(-n2nc(C(C)(C)C)cc2NC(=O)N[C@H]2CC[C@@H](Oc3ccc4nnc(N5CCCC[C@@H]5C)n4c3)c3ccccc32)cc1` [Example 185, 1-[5-tert-Butyl-2-(4-{[(2-methoxy-ethyl)-methyl-amino]-methyl}-phenyl)-2H-pyrazol-3-yl]-3-{(1S,4R)-4-[3-((S)-2-methyl-piperidin-1-yl)-[1,2,4]triazolo[4,3-a]pyridin-6-yloxy]-1,2,3,4-tetrahydro-naphthalen-1-yl}-urea formate salt]: the pIC50 was more than 8.00.

For the next experiment, the system named is LPS-stimulated TNFα release from PBMCs. The experiment can be described thus: LPS-stimulated PBMC TNFα release assay. It counts as cell-based. To be noted: inhibition of TNFα release, human PBMCs, LPS 10 ng/ml, 18 h, ELISA, read-out: p38α inhibition (IC50 values). The procedure:
LPS-Stimulated PBMC TNFα Release Assay.
Peripheral Blood Mononuclear Cells (PBMCs) were isolated from healthy human volunteer blood using a standard density gradient centrifugation technique. Citrated blood was placed onto Histopaque™ and centrifuged. The PBMCs were removed from the density gradient interface and washed in phosphate buffered saline (PBS). The PBMCs were suspended in RPMI 1640 medium (without serum), dispensed into a 96-well plate and incubated at 37° C. for 3 h in a humidified incubator. After incubation, the medium was replaced (with medium containing 1% foetal bovine serum) and the plate incubated at 37° C., for 1 h, in the presence of test compound or the appropriate vehicle. LPS (10 ng/ml), or an appropriate vehicle control, was then added to the cells and the plate returned to the incubator for 18 h. Cell-free supernatants were removed and assayed for TNFα levels using an ELISA kit from R&D Systems.
A dose response curve to each test compound was performed and the effect of compound in each experiment was expressed as a percentage inhibition of the control TNFα release. Dose response curves were plotted and compound potency (IC50) was determined. Compounds were tested in at least three separate experiments.
As for `Cc1ccc(-n2nc(C(C)(C)C)cc2NC(=O)N[C@H]2CC[C@@H](Oc3ccc4nnc(CCN5CCCC5)n4c3)c3ccccc32)cc1` [Example 1, 1-(5-tert-Butyl-2-p-tolyl-2H-pyrazol-3-yl)-3-{(1S,4R)-4-[3-(2-pyrrolidin-1-yl-ethyl)-[1,2,4]triazolo[4,3-a]pyridin-6-yloxy]-1,2,3,4-tetrahydro-naphthalen-1-yl}-urea], the pIC50 was 7.00 to 8.00.

With `Cc1ccc(-n2nc(C(C)(C)C)cc2NC(=O)N[C@H]2CC[C@@H](Oc3ccc4nnc(CN5CCN(C)CC5)n4c3)c3ccccc32)cc1` [Example 14, 1-(5-tert-Butyl-2-p-tolyl-2H-pyrazol-3-yl)-3-{(1S,4R)-4-[3-(4-methyl-piperazin-1-ylmethyl)-[1,2,4]triazolo[4,3-a]pyridin-6-yloxy]-1,2,3,4-tetrahydro-naphthalen-1-yl}-urea formate salt], the pIC50 is 7.00 to 8.00.

As to `Cc1ccc(-n2nc(C(C)(C)C)cc2NC(=O)N[C@H]2CC[C@@H](Oc3ccc4nnc(CN5CCOCC5)n4c3)c3ccccc32)cc1` [Example 15, 1-(5-tert-Butyl-2-p-tolyl-2H-pyrazol-3-yl)-3-[(1S,4R)-4-(3-morpholin-4-ylmethyl-[1,2,4]triazolo[4,3-a]pyridin-6-yloxy)-1,2,3,4-tetrahydro-naphthalen-1-yl]-urea formate salt], the pIC50 is more than 8.00.

As for `Cc1ccc(-n2nc(C(C)(C)C)cc2NC(=O)N[C@H]2CC[C@@H](Oc3ccc4nnc(CN5CCCC5)n4c3)c3ccccc32)cc1` [Example 16, 1-(5-tert-Butyl-2-p-tolyl-2H-pyrazol-3-yl)-3-[(1S,4R)-4-(3-pyrrolidin-1-ylmethyl-[1,2,4]triazolo[4,3-a]pyridin-6-yloxy)-1,2,3,4-tetrahydro-naphthalen-1-yl]-urea], the pIC50 is more than 8.00.

Consider `C[C@@H]1CCC[C@H](C)N1c1nnc2ccc(O[C@@H]3CC[C@H](NC(=O)NC4CC4)c4ccccc43)cn12` [Example 117, 1-Cyclopropyl-3-{(1S,4R)-4-[3-((2S,6R)-2,6-dimethyl-piperidin-1-yl)-[1,2,4]triazolo[4,3-a]pyridin-6-yloxy]-1,2,3,4-tetrahydro-naphthalen-1-yl}-urea formate salt], for which the pIC50 was more than 8.00.
